Here are results for 7 compounds from ChEMBL document CHEMBL1201862, “PubChem BioAssay data set” (2004).

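In this assay, cells in 96-well plates receive the compound at five concentrations for 48 hours. Endpoints are linearly interpolated between the surrounding concentrations. GI50 is the concentration that inhibits growth by half.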 Calls of active or inactive are those of the source. No stated cut-off is given here; in the data, active = GI50 up to about 1.1 µM and inactive = higher.

Some test systems named below: CAKI-1; OVCAR-3; SR; HOP-62; HT-29; MDA-MB-231; COLO 205; Malme-3M; ACHN; LXFL 529; A498; HCC 2998; IGROV-1; NCI-H522; CCRF-CEM; RPMI-8226; SW-620; UACC-62; SN12C; T47D.
What all share (experiment): NCI-60 cell line screen, 48 h

Take `CNC(=O)NC(CCCCNC(=O)OCc1ccccc1)C(=O)OCc1ccccc1` (stereo not given): the GI50 was 47.6 µM (inactive) in the assay with CAKI-1; 21.1 µM (inactive) in the assay on OVCAR-3; 19.9 µM (inactive) in the assay on SR; > 100 µM (inactive) in the assay with HOP-62; > 100 µM (inactive) in the assay with HT-29; > 42.9 µM (inactive) in the assay with MDA-MB-231. Also, the GI50 was 16.3 µM (inactive) with COLO 205; 27 µM (inactive) with Malme-3M; 41.9 µM (inactive) with ACHN; 33.9 µM (inactive) with LXFL 529; 20.3 µM (inactive) with A498; 30.5 µM (inactive) with HCC 2998. Further, the GI50 is > 100 µM (inactive) in the assay with IGROV-1; 12.6 µM (inactive) in the assay on NCI-H522; 14.7 µM (inactive) in the assay on CCRF-CEM; 24.9 µM (inactive) in the assay with RPMI-8226; > 97.5 µM (inactive) in the assay on SW-620; 16.7 µM (inactive) in the assay on UACC-62. The GI50 in the assay with SN12C is 39.5 µM (inactive); with T47D, 28.1 µM (inactive).
For `CCCCCCCC/C=C1\CCC(CN(C)C)C1=O` (stereo not given), the GI50 is 3.1 µM (inactive) in the assay with CAKI-1; 7.18 µM (inactive) with OVCAR-3; 3.15 µM (inactive) in the assay on SR; 12.2 µM (inactive) in the assay on HOP-62; 4.35 µM (inactive) with HT-29; 4.16 µM (inactive) with COLO 205. The GI50 with Malme-3M was 3.18 µM (inactive); in the assay with ACHN, 6.61 µM (inactive); in the assay on LXFL 529 it was 1.61 µM (inactive); in the assay with A498, 16.5 µM (inactive); in the assay on HCC 2998, 9.57 µM (inactive); with IGROV-1 it was 8.17 µM (inactive). In addition, the GI50 with NCI-H522 is 3.54 µM (inactive); with CCRF-CEM it was 1.54 µM (inactive); in the assay with RPMI-8226, 0.211 µM (active); with SW-620, 3.33 µM (inactive); in the assay on UACC-62 it was 7.41 µM (inactive); in the assay with SN12C, 4.02 µM (inactive).
For the compound `C#CCN(N=O)C(=O)NC(CCCNC(=O)OCc1ccccc1)C(=O)OCc1ccccc1` (stereo not given), the GI50 was 28.1 µM (inactive) with CAKI-1; > 100 µM (inactive) with OVCAR-3; 34.8 µM (inactive) with SR; > 100 µM (inactive) in the assay on HOP-62; > 100 µM (inactive) with HT-29; 91.2 µM (inactive) with COLO 205. In addition, the GI50 is > 100 µM (inactive) with Malme-3M; > 100 µM (inactive) in the assay on ACHN; 72.9 µM (inactive) with LXFL 529; > 100 µM (inactive) with A498; > 100 µM (inactive) in the assay with HCC 2998; > 100 µM (inactive) in the assay with IGROV-1. For the same compound, the GI50 in the assay with NCI-H522 was 13.2 µM (inactive); with CCRF-CEM it was 22.8 µM (inactive); in the assay with RPMI-8226 it was 63.2 µM (inactive); in the assay with SW-620, 55.8 µM (inactive); in the assay on UACC-62 it was > 100 µM (inactive); with SN12C, > 100 µM (inactive).
On to `O=C1C2C3C=CC(C2C(=O)N1COP(=O)(O)O)C1C2C(=O)N(COP(=O)(O)O)C(=O)C2C31` (stereo not given), for which the GI50 in the assay with CAKI-1 is > 100 µM (inactive); in the assay with OVCAR-3 it was > 100 µM (inactive); in the assay with SR it was 17.5 µM (inactive); with HOP-62, > 100 µM (inactive); in the assay on HT-29, > 100 µM (inactive); in the assay with COLO 205, > 47.5 µM (inactive). The GI50 in the assay with Malme-3M was > 100 µM (inactive); with ACHN it was > 91.2 µM (inactive); in the assay on LXFL 529, > 100 µM (inactive); with A498 it was > 100 µM (inactive); in the assay on HCC 2998, > 100 µM (inactive); with IGROV-1 it was > 100 µM (inactive). The GI50 was > 100 µM (inactive) in the assay on NCI-H522; > 42.4 µM (inactive) in the assay on CCRF-CEM; > 46.1 µM (inactive) with RPMI-8226; > 45.7 µM (inactive) with SW-620; > 100 µM (inactive) in the assay on UACC-62; > 74.3 µM (inactive) in the assay on SN12C.
With `CS(=O)(=O)c1cc(=O)c2ccccc2s1`, the GI50 in the assay on CAKI-1 is 2.07 µM (inactive); with OVCAR-3 it was 2.61 µM (inactive); in the assay on SR, 2.07 µM (inactive); with HOP-62, 20.5 µM (inactive); with HT-29 it was 5.01 µM (inactive); with MDA-MB-231, 15 µM (inactive). The GI50 is 1.76 µM (inactive) in the assay on COLO 205; 1.8 µM (inactive) in the assay with Malme-3M; 2.74 µM (inactive) with ACHN; 1.63 µM (inactive) with LXFL 529; 17.1 µM (inactive) in the assay on A498; 14 µM (inactive) in the assay with HCC 2998. Moreover, the GI50 with IGROV-1 was 18.5 µM (inactive); in the assay on NCI-H522 it was 1.24 µM (inactive); in the assay on CCRF-CEM it was 1.53 µM (inactive); in the assay on RPMI-8226, 2.42 µM (inactive); in the assay with SW-620, 1.86 µM (inactive); in the assay with UACC-62, 12.2 µM (inactive). In addition, the results for the GI50 with SN12C and in the assay with T47D were 9.53 µM (inactive) and 3.08 µM (inactive), respectively.
Regarding `CCN1C(=O)/C(=C\c2coc3ccccc3c2=O)SC1=S`, the GI50 is > 100 µM (inactive) in the assay on CAKI-1; > 100 µM (inactive) in the assay on OVCAR-3; 36.6 µM (inactive) in the assay with SR; 61.9 µM (inactive) with HOP-62; > 100 µM (inactive) with HT-29; > 100 µM (inactive) in the assay with COLO 205. The GI50 in the assay with Malme-3M, in the assay with ACHN, in the assay on LXFL 529, in the assay on A498, with HCC 2998 and with IGROV-1 was > 100 µM (inactive) each time. Besides, the GI50 was 91.4 µM (inactive) with NCI-H522; 65.6 µM (inactive) in the assay on CCRF-CEM; > 100 µM (inactive) in the assay on RPMI-8226; 49.4 µM (inactive) in the assay on SW-620; 68.7 µM (inactive) in the assay with UACC-62; > 100 µM (inactive) in the assay on SN12C.
Consider `CCCCCCCCCCCCCCCCc1c(C(=O)OC)[nH]c(=S)[nH]c1=O`, for which the GI50 in the assay on CAKI-1 was > 50 µM (inactive); with OVCAR-3 it was > 50 µM (inactive); in the assay with SR, 0.0151 µM (active); in the assay on HOP-62 it was > 50 µM (inactive); with HT-29, > 50 µM (inactive); in the assay on COLO 205 it was > 50 µM (inactive). Moreover, the GI50 with Malme-3M, in the assay on ACHN, with LXFL 529, in the assay with A498, in the assay on HCC 2998 and with IGROV-1 was > 50 µM (inactive) in each case. Besides, the GI50 in the assay on NCI-H522, with CCRF-CEM, in the assay with RPMI-8226, in the assay on SW-620, with UACC-62 and in the assay with SN12C was > 50 µM (inactive) in each case.
